According to patent US20060024234A1, “Protein markers for pharmaceuticals and related toxicity” (LARGE SCALE PROTEOMICS CORPORATION, A Division of Large …, priority 2000, published 2006):

Tests used:
rat liver proteins [1] = target: T1, rat liver proteins (Rattus norvegicus, UniProt P05545); assay: Proteome analysis (2-D gel electrophoresis) of liver of rats fed antilipemic drugs at low and high dose for 7 days (Examples 1-3); type: in vivo; details: rat liver, high doses
T1 construct: The 2DGE protein pattern of rat liver illustrates over 1000 Coomassie Blue stained protein spots; from tissue; host or cells: liver (left apical lobe) of drug-fed F344 rats
T1 sequence (P05545 21-416): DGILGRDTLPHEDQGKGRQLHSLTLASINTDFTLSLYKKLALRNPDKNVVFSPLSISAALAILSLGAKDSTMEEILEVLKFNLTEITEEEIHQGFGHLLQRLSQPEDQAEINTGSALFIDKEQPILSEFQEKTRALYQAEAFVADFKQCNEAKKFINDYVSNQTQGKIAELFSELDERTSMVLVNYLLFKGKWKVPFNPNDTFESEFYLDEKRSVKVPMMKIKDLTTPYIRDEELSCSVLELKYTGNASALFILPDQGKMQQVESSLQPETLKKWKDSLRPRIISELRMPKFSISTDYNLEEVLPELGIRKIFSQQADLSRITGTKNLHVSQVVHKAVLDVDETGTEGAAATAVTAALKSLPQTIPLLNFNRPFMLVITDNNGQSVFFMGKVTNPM
Experimental: (§1) The animals were guillotined after CO2 asphyxiation on the day following the last treatment. Liver samples (150 mg of the left apical lobe) were removed and flash frozen in liquid nitrogen and kept at −80° C. until analysis.
(§2) The homogenates were centrifuged at 420,000×g at 22° C. for 30 min. […] The supernatant was removed, divided into four aliquots and stored at −80° C. until analysis.
(§3) An Angelique™ computer-controlled gradient-casting system (Large Scale Biology Corporation, Rockville, Md.) was used to prepare the second-dimension SDS slab gels. […] Second-dimensional slab gels were run overnight at 160 V in cooled DALT tanks (10° C.) with buffer circulation and were taken out when the tracking dye reached the bottom of the gel. Following SDS electrophoresis, the slab gels were fixed overnight in 1.5 liters/10 gels of 50% ethanol/3% phosphoric acid and then washed three times for 30 min in 1.5 liters/10 gels of cold DI water. They were transferred to 1.5 liters/10 gels of 34% methanol/17% ammonium sulfate/3% phosphoric acid for one hour, and after the addition of one gram powdered Coomassie Blue G-250 the gels were stained for three days to achieve equilibrium intensity.
(§4) Groupwise statistical comparisons were made to search for treatment-related protein abundance changes.
(§5) For these experiments, only pharmaceutical grade compounds were used with the trademark identifying the source. […] In each experiment, the low dose was equivalent to the daily human therapeutic dose.

rat liver proteins [2] = target: T2, rat liver proteins (Rattus norvegicus, UniProt P31044); assay: as above; type: in vivo; details: rat liver
T2 construct: The 2DGE protein pattern of rat liver illustrates over 1000 Coomassie Blue stained protein spots; from tissue; host or cells: liver (left apical lobe) of drug-fed F344 rats
T2 sequence (P31044 1-187): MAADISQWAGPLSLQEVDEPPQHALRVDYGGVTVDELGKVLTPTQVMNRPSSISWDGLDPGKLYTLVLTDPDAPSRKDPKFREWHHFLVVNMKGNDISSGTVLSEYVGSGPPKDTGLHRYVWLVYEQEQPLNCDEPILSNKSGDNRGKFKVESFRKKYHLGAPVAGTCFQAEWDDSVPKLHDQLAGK
Experimental: as §1, §2, §3, §4, §5

rat liver proteins [3] = target: T3, rat liver proteins (Rattus norvegicus, UniProt P55260); assay: as above; type: in vivo; details: rat liver
T3 construct: The 2DGE protein pattern of rat liver illustrates over 1000 Coomassie Blue stained protein spots; from tissue; host or cells: liver (left apical lobe) of drug-fed F344 rats
T3 sequence (P55260 1-319): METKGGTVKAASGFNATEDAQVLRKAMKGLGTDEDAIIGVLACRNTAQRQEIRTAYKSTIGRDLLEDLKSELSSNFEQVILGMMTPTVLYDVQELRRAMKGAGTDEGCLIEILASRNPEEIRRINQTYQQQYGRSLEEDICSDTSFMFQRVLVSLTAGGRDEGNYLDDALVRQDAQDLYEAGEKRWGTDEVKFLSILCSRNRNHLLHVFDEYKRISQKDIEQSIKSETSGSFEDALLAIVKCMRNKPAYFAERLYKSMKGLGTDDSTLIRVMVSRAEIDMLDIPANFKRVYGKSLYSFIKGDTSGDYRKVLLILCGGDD
Experimental: as §1, §2, §3, §4, §5

rat liver proteins [4] = assay: as above; type: in vivo
Experimental: as §1, §2, §3, §4, §5

[5] = Weight gain of treated rats; type: in vivo, rat; details: high doses
[6] = rat liver, 1500 ppm in feed for 7 days

CC[C@H](C)C(=O)O[C@H]1C[C@@H](C)C=C2C=C[C@H](C)[C@H](CC[C@@H]3C[C@@H](O)CC(=O)O3)[C@H]21 [Mevacor ®, lovastatin]
serine protease inhibitor 2 (SPI-2) abundance (rat liver proteins [1]): decrease | 23 kD morphine binding protein abundance (rat liver proteins [2]): increased | annexin IV abundance (rat liver proteins [3]): dose-dependent increase | protein abundance changes in liver at low dose (rat liver proteins [4]; 16 ppm in feed for 7 days): not of statistical significance | protein kinase C inhibitor abundance (rat liver proteins [4]; rat liver): increased | number of hepatic proteins with altered abundance, p<0.001 (rat liver proteins [4]; [6]): 32 | number of liver proteins with altered abundance, p<0.0001 (rat liver proteins [4]; [6]): 8 | number of liver proteins with altered abundance, p<0.005 (rat liver proteins [4]; [6]): 64 | number of lost liver proteins (rat liver proteins [4]; [6]): one | number of new liver proteins (rat liver proteins [4]; [6]): 1 | number of liver proteins with altered abundance (total) (rat liver proteins [4]; rat liver, two-tailed Student's t-test, 1500 ppm in feed for 7 days): 66 | weight gain [5]: decrease
